Experimental data taken from US11787799B2 (priority 2015, dated 2023).
Where “and” joins values, the source holds several entries; their conditions need not be identical. Equal entries are not always repeated.

How the values were obtained:
Enterovirus D68/Fermon = assay: Antiviral assay, Enterovirus D68 strain Fermon in RD cells; type: cell-based
[1] = system: Enterovirus D68/US/Mo/14-18949; assay: Antiviral assay, Enterovirus D68 strain US/Mo/14-18949 in RD cells; type: cell-based
[2] = system: Enterovirus D68/US/KY/14-18953; assay: Antiviral assay, Enterovirus D68 strain US/KY/14-18953 in RD cells; type: cell-based
Coxsackievirus B3-H3 = assay: microbe, parasite or virus in culture; type: cell-based; details: read-out: EC50 CVB3-H3
Poliovirus 1 = assay: microbe, parasite or virus in culture; type: cell-based; details: read-out: EC50 PV1
Poliovirus 3 = assay: microbe, parasite or virus in culture; type: cell-based; details: read-out: EC50 PV3
Coxsackievirus B1 = assay: microbe, parasite or virus in culture; type: cell-based; details: read-out: EC50 CVB1
Coxsackievirus B4 = assay: microbe, parasite or virus in culture; type: cell-based; details: read-out: EC50 CVB4
Coxsackievirus B5 = assay: microbe, parasite or virus in culture; type: cell-based; details: read-out: EC50 CVB5
Coxsackievirus A9 = assay: microbe, parasite or virus in culture; type: cell-based; details: read-out: EC50 COX A9
Echovirus 6 = assay: microbe, parasite or virus in culture; type: cell-based; details: read-out: EC50 ECHO06
Echovirus 9 = assay: microbe, parasite or virus in culture; type: cell-based; details: read-out: EC50 ECHO09
Coxsackievirus B2 = assay: microbe, parasite or virus in culture; type: cell-based; details: read-out: EC50 CVB2
Enterovirus 71 = assay: microbe, parasite or virus in culture; type: cell-based; details: read-out: EC50 EV71
Echovirus 7 = assay: microbe, parasite or virus in culture; type: cell-based; details: read-out: EC50 ECHO07

| SMILES | EC50 (Enterovirus D68/Fermon) [nM] | EC50 [1] [nM] | EC50 [2] [nM] | CC50 (RD cells) [nM] | EC50 (Coxsackievirus B3-H3) [nM] | EC50 (Poliovirus 1) [nM] | EC50 (Poliovirus 3) | EC50 (Coxsackievirus B1) [nM] | EC50 (Coxsackievirus B4) [nM] | EC50 (Coxsackievirus B5) [nM] | EC50 (Coxsackievirus A9) [nM] | EC50 (Echovirus 6) [nM] | EC50 (Echovirus 9) [nM] | CC50 (HeLa-RW cells) [nM] | CC50 (LLC cells) [nM] | EC50 (Coxsackievirus B2) [nM] | EC50 (Enterovirus 71) [nM] | EC50 (Echovirus 7) [nM] |
| --- | --- | --- | --- | --- | --- | --- | --- | --- | --- | --- | --- | --- | --- | --- | --- | --- | --- | --- |
| CC(C)n1ncc2c(C(=O)Nc3ccccc3F)cc(-c3nccs3)nc21 [JX-007] | 800 ± 280 | 660 ± 100 | 1200 | > 200000 | – | – | – | – | – | – | – | – | – | – | – | – | – | – |
| CC(C)(C)n1ncc2c(C(=O)Nc3ccccc3F)cc(-c3cccs3)nc21 [JX-013] | 1330 ± 230 | 1070 ± 230 | 1800 ± 440 | > 200000 | – | – | – | – | – | – | – | – | – | – | – | – | – | – |
| CC(C)n1ncc2c(C(=O)Nc3ccc(F)c(F)c3)cc(-c3cccs3)nc21 [JX-015] | – | – | – | – | 1300 ± 100 | > 25000 | > 25000 nM | 2300 | 3100 | 2300 | 1200 | 1300 ± 100 | 600 | > 200000 | > 200000 | – | – | – |
| CC(C)n1ncc2c(C(=O)Nc3cc(F)cc(F)c3)cc(-c3cccs3)nc21 [JX-016] | – | – | – | – | > 10000 | > 10000 | > 10000 nM | > 10000 | > 10000 | > 10000 | – | – | – | – | – | > 10000 | – | – |
| CC(C)n1ncc2c(C(=O)Nc3cc(F)ccc3F)cc(-c3cccs3)nc21 [JX-018] | – | – | – | – | 2700 ± 400 | > 25000 | > 25000 nM | – | – | – | 2400 | 2600 ± 300 | – | > 200000 | 100000 | – | 3500 | – |
| CC(C)n1ncc2c(C(=O)Nc3cccc(F)c3F)cc(-c3cccs3)nc21 [JX-019] | – | – | – | – | 2700 ± 400 | > 25000 | > 25000 nM | – | – | – | – | 2000 ± 600 | – | > 200000 | 75000 | – | 3000 | – |
| CC(C)n1ncc2c(C(=O)Nc3c(F)cc(F)cc3F)cc(-c3cccs3)nc21 [JX-020] | – | – | – | – | 1800 ± 700 | > 25000 | > 25000 nM | 6000 | 3100 | 2300 | 2400 | 2400 | – | > 200000 | > 200000 | – | 3000 | – |
| CC(C)n1ncc2c(C(=O)Nc3ccc(F)cc3)cc(-c3ccco3)nc21 [JX-026] | 1200 | 1000 ± 20 | 1300 ± 200 | > 200000 | 2400 | > 25000 | > 25000 nM | 3300 | 3300 | 3300 | – | 2400 | – | > 200000 | > 200000 | 3300 | 2600 ± 300 | – |
| CC(C)n1ncc2c(C(=O)Nc3ccccc3S(N)(=O)=O)cc(-c3cccs3)nc21 [JX-033] | – | – | – | – | 2600 ± 400 | > 25000 | > 25000 nM | 3900 ± 1100 | 3100 ± 100 | 2700 ± 600 | 2400 | 2400 | – | 10000 | 25000 | 3900 ± 1100 | 2500 ± 700 | – |
| CC(C)n1ncc2c(C(=O)Nc3ccc(F)cc3)cc(C3CC3)nc21 [JX-038] | – | – | – | – | 4700 | > 10000 | > 10000 nM | 4700 | – | – | 3000 | 3900 | – | 10000 | 12500 | 4700 | 3200 ± 100 | – |
| CC(C)n1ncc2c(C(=O)Nc3ccncc3)cc(-c3cccs3)nc21 [JX-042] | – | – | – | – | 600 | > 10000 | > 10000 nM | 600 | 600 | 600 | 500 | 200 | – | 6000 | 6250 | 600 | 400 | – |
| CC(C)n1ncc2c(C(=O)Nc3ccncn3)cc(-c3cccs3)nc21 [JX-043] | – | – | – | – | 600 | > 10000 | > 10000 nM | 600 | 500 | 600 | 500 | 200 | – | 20000 | 50000 | 600 | 500 ± 100 | 700 |
| CC(C)n1ncc2c(C(=O)Nc3ccc(S(C)(=O)=O)cc3)cc(-c3cccs3)nc21 [JX-047] | 300 | 160 ± 40 | 300 | 75000 | 600 | > 10000 | > 10000 nM | 600 | 600 | 600 | 500 | 300 | – | 200000 | 50000 | 600 | 500 ± 100 | 800 |
| CC(C)n1ncc2c(C(=O)N3CCc4cc(F)ccc43)cc(-c3cccs3)nc21 [JX-048] | 2800 ± 450 | 2100 ± 600 | 4100 ± 1200 | > 200000 | 1500 | > 10000 | > 10000 nM | 1500 | 1200 | 1200 | 1200 | 1100 | – | 20000 | > 200000 | 1500 | 1300 ± 200 | – |
| CC(C)n1ncc2c(C(=O)Nc3cccc(S(N)(=O)=O)c3)cc(C3CC3)nc21 [JX-055] | 700 ± 200 | 400 ± 200 | 730 ± 120 | > 200000 | – | – | – | – | – | – | – | – | – | – | – | – | – | – |
| CC(C)n1ncc2c(C(=O)Nc3cccnc3)cc(-c3ccsc3)nc21 [JX-060] | – | – | – | – | 600 | > 10000 | > 10000 nM | 600 | 600 | 600 | – | – | – | 18000 | 37000 | 600 | 2400 | – |
| CC(C)n1ncc2c(C(=O)Nc3cccc(C(N)=O)c3)cc(-c3cccs3)nc21 [JX-064] | – | 50 | 170 | 25000 | 700 ± 100 | 6250 | 6250 nM | 600 | 600 | 600 | 600 | – | 200 | 18000 | 20000 | 600 | 500 | – |
| CC(C)n1ncc2c(C(=N)Nc3cccnc3)cc(-c3cccs3)nc21 [JX-065] | 6300 | 4700 ± 1600 | 6300 | 75000 | – | – | – | – | – | – | – | – | – | – | – | – | – | – |
| CC(C)n1ncc2c(C(=O)Nc3cncnc3)cc(-c3cccs3)nc21 [JX-066] | 60 ± 20 | 50 ± 10 | 150 | 25000 | 700 ± 200 | > 10000 | > 10000 nM | 500 | 500 | 500 | 400 | – | 200 | 18000 | 20000 | 500 | 400 | – |
| CC(C)n1ncc2c(C(=N)Nc3ccc(F)cc3)cc(-c3cccs3)nc21 [JX-067] | 1600 | 1270 ± 120 | 2270 ± 230 | 100000 | – | – | – | – | – | – | – | – | – | 18000 | – | – | – | – |
| CC(C)n1ncc2c(C(=O)Nc3cc(S(N)(=O)=O)ccc3F)cc(-c3cccs3)nc21 [JX-068] | 50 | 50 ± 10 | 110 ± 10 | 25000 | 600 | 6250 | 6250 nM | 600 | 500 | 500 | 600 | – | 200 | 18000 | 25000 | 500 | 500 | – |
| CC(C)n1ncc2c(C(=O)Nc3ccccn3)cc(-c3ccccc3)nc21 [JX-070] | 350 | – | 700 | 12500 | 1600 | > 10000 | > 10000 nM | 1200 | – | – | – | – | – | 18800 | 12500 | 1600 | 700 | 2300 |
| CC(C)n1ncc2c(C(=O)Nc3ccccn3)cc(C3CC3)nc21 [JX-071] | 1200 | – | 2300 | 37000 | 4700 | > 10000 | > 10000 nM | 4700 | – | – | – | – | – | 25000 | 25000 | 6250 | 4700 | 9400 |
| CC(C)n1ncc2c(C(=O)Nc3cc(C(N)=O)ccc3F)cc(-c3cccs3)nc21 [JX-073] | < 400 | – | < 400 | 25000 | 800 | 5000 | 5000 nM and 6300 nM | 600 | – | – | – | – | – | 18800 | 25000 | 1200 | 500 | 1200 |
| CC(C)n1ncc2c(C(=O)Nc3ccc(F)cn3)cc(-c3cccs3)nc21 [JX-075] | < 400 | < 400 | < 400 | 25000 | 700 ± 100 | > 10000 | > 10000 nM | – | – | – | – | – | – | 37500 | > 200000 | – | 1200 | – |
| CC(C)n1ncc2c(C(=O)N3CCc4cccnc43)cc(-c3cccs3)nc21 [JX-076] | 4000 | 4000 | 4700 | 45000 | 9400 | > 10000 | > 10000 nM | – | – | – | – | – | – | 37500 | 50000 | – | 12500 | – |
